PubChem BioAssay AID2060626 (Molecular Pharmacology Branch, DTP, NCI, 2025)
“And” between values parts separate entries of the source, which are not always exact repeats. Equal entries are not always repeated. One block for each compound: values may come before it.

Tested on: 168753-222-R-J1-PDC complex spheroid viability
Experiment: Anticancer human tumor 168753-222-R-J1-PDC patient-derived bladder carcinoma cell line growth inhibition [CLK]
Conditions: for viability, T/C: stronger effect = lower value
Outline: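 Patient-derived tumor cells grown as complex spheroids with HUVEC endothelial cells and mesenchymal stem cells, treated with drug combinations. Concentrations descend in half-log steps from near clinical Cmax, or from 10 microM if Cmax unknown.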

[1] = curve of first compound, second compound 0.0316 µM
[2] = curve of first compound, second compound 0.1 µM
[3] = curve of first compound, second compound 0.316 µM
[4] = curve of first compound, second compound 1 µM
[5] = curve of first compound, second compound 3.16 µM
[6] = curve of first compound, second compound 10 µM
[7] = second compound 0.0316 µM, first compound 0.0316 µM
[8] = second compound 0.0316 µM, first compound 0.1 µM
[9] = second compound 0.0316 µM, first compound 0.316 µM
[10] = second compound 0.0316 µM, first compound 1 µM
[11] = second compound 0.0316 µM, first compound 3.16 µM
[12] = second compound 0.0316 µM, first compound 10 µM
[13] = second compound 0.1 µM, first compound 0.0316 µM
[14] = second compound 0.1 µM, first compound 0.1 µM
[15] = second compound 0.1 µM, first compound 0.316 µM
[16] = second compound 0.1 µM, first compound 1 µM
[17] = second compound 0.1 µM, first compound 3.16 µM
[18] = second compound 0.1 µM, first compound 10 µM
[19] = second compound 0.316 µM, first compound 0.0316 µM
[20] = second compound 0.316 µM, first compound 0.1 µM
[21] = second compound 0.316 µM, first compound 0.316 µM
[22] = second compound 0.316 µM, first compound 1 µM
[23] = second compound 0.316 µM, first compound 3.16 µM
[24] = second compound 0.316 µM, first compound 10 µM
[25] = second compound 1 µM, first compound 0.0316 µM
[26] = second compound 1 µM, first compound 0.1 µM
[27] = second compound 1 µM, first compound 0.316 µM
[28] = second compound 1 µM, first compound 1 µM
[29] = second compound 1 µM, first compound 3.16 µM
[30] = second compound 1 µM, first compound 10 µM
[31] = second compound 3.16 µM, first compound 0.0316 µM
[32] = second compound 3.16 µM, first compound 0.1 µM
[33] = second compound 3.16 µM, first compound 0.316 µM
[34] = second compound 3.16 µM, first compound 1 µM
[35] = second compound 3.16 µM, first compound 3.16 µM
[36] = second compound 3.16 µM, first compound 10 µM
[37] = second compound 10 µM, first compound 0.0316 µM
[38] = second compound 10 µM, first compound 0.1 µM
[39] = second compound 10 µM, first compound 0.316 µM
[40] = second compound 10 µM, first compound 1 µM
[41] = second compound 10 µM, first compound 3.16 µM
[42] = second compound 10 µM, first compound 10 µM
[43] = second compound 0.0316 µM, first compound 0.00316 µM
[44] = second compound 0.0316 µM, first compound 0.01 µM
[45] = second compound 0.1 µM, first compound 0.00316 µM
[46] = second compound 0.1 µM, first compound 0.01 µM
[47] = second compound 0.316 µM, first compound 0.00316 µM
[48] = second compound 0.316 µM, first compound 0.01 µM
[49] = second compound 1 µM, first compound 0.00316 µM
[50] = second compound 1 µM, first compound 0.01 µM
[51] = second compound 3.16 µM, first compound 0.00316 µM
[52] = second compound 3.16 µM, first compound 0.01 µM
[53] = second compound 10 µM, first compound 0.00316 µM
[54] = second compound 10 µM, first compound 0.01 µM
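Also: viability measured after seven days of drug exposure.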
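For viability, T/C in this document: luminescence signal used as surrogate for viable cell amount; 100% = DMSO vehicle control wells.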

Structure (SMILES): CC(=O)O[C@H]1C(=O)[C@@]2(C)[C@H]([C@H](OC(=O)c3ccccc3)[C@]3(O)C[C@H](OC(=O)[C@H](O)[C@@H](NC(=O)c4ccccc4)c4ccccc4)C(C)=C1C3(C)C)[C@]1(OC(C)=O)CO[C@@H]1C[C@@H]2O + CN1CCN(c2cc(C(=O)Nc3cc4cc(-c5cnn(C)c5)ccc4cn3)ccn2)CC1
IC50 [1]: < 31.6 nM
IC50 [2]: < 31.6 nM
IC50 [3]: < 31.6 nM
IC50 [4]: < 31.6 nM
IC50 [5]: < 31.6 nM
IC50 [6]: < 31.6 nM
viability, T/C [7]: 22.1%
viability, T/C [8]: 11.1%
viability, T/C [9]: 11.2%
viability, T/C [10]: 10.7%
viability, T/C [11]: 11.2%
viability, T/C [12]: 12.3%
viability, T/C [13]: 12.3%
viability, T/C [14]: 10.6%
viability, T/C [15]: 10.9%
viability, T/C [16]: 9.64%
viability, T/C [17]: 9.88%
viability, T/C [18]: 11.4%
viability, T/C [19]: 10.7%
viability, T/C [20]: 10.2%
viability, T/C [21]: 10.4%
viability, T/C [22]: 9.61%
viability, T/C [23]: 10.3%
viability, T/C [24]: 13.2%
viability, T/C [25]: 0.12%
viability, T/C [26]: 0.32%
viability, T/C [27]: 0.16%
viability, T/C [28]: 0.11%
viability, T/C [29]: 0.15%
viability, T/C [30]: 0.21%
viability, T/C [31]: 0.05%
viability, T/C [32]: 0.19%
viability, T/C [33]: 0.17%
viability, T/C [34]: 0.06%
viability, T/C [35]: 0.09%
viability, T/C [36]: 0.14%
viability, T/C [37]: 0.07%
viability, T/C [38]: 0.11%
viability, T/C [39]: 0.51%
viability, T/C [40]: 0.1%
viability, T/C [41]: 0.17%
viability, T/C [42]: 0.23%

Structure (SMILES): COc1cccc2c1C(=O)c1c(O)c3c(c(O)c1C2=O)CC(O)(C(=O)CO)CC3OC1CC(N)C(O)C(C)O1 (stereo not drawn) + CN1CCN(c2cc(C(=O)Nc3cc4cc(-c5cnn(C)c5)ccc4cn3)ccn2)CC1
IC50 [1]: 33.1 nM
IC50 [2]: < 31.6 nM
IC50 [3]: < 31.6 nM
IC50 [4]: < 31.6 nM
IC50 [5]: < 31.6 nM
IC50 [6]: < 31.6 nM
viability, T/C [7]: 51.4%
viability, T/C [8]: 31.8%
viability, T/C [9]: 23.1%
viability, T/C [10]: 6.97%
viability, T/C [11]: 7.48%
viability, T/C [12]: 0.18%
viability, T/C [13]: 38.4%
viability, T/C [14]: 15.5%
viability, T/C [15]: 10.5%
viability, T/C [16]: 7.96%
viability, T/C [17]: 5.89%
viability, T/C [18]: 0.16%
viability, T/C [19]: 8.86%
viability, T/C [20]: 8.74%
viability, T/C [21]: 7.81%
viability, T/C [22]: 6.39%
viability, T/C [23]: 0.05%
viability, T/C [24]: 0.05%
viability, T/C [25]: 0.13%
viability, T/C [26]: 0.11%
viability, T/C [27]: 0.17%
viability, T/C [28]: 0.05%
viability, T/C [29]: 0.48%
viability, T/C [30]: 1.29%
viability, T/C [31]: 1.25%
viability, T/C [32]: 0.09%
viability, T/C [33]: 0.07%
viability, T/C [34]: 0.05%
viability, T/C [35]: 0.27%
viability, T/C [36]: 0.95%
viability, T/C [37]: 0.04%
viability, T/C [38]: 0.26%
viability, T/C [39]: 0.34%
viability, T/C [40]: 0.08%
viability, T/C [41]: 0.95%
viability, T/C [42]: 0.95%

Structure (SMILES): CCc1c2c(nc3ccc(O)cc13)-c1cc3c(c(=O)n1C2)COC(=O)[C@]3(O)CC + CN1CCN(c2cc(C(=O)Nc3cc4cc(-c5cnn(C)c5)ccc4cn3)ccn2)CC1
IC50 [1]: 16.9 nM
IC50 [2]: < 3.16 nM
IC50 [3]: < 3.16 nM
IC50 [4]: < 3.16 nM
IC50 [5]: < 3.16 nM
IC50 [6]: < 3.16 nM
viability, T/C [43]: 77.7%
viability, T/C [44]: 65.3%
viability, T/C [7]: 29.3%
viability, T/C [8]: 30.1%
viability, T/C [9]: 13.1%
viability, T/C [10]: 8.39%
viability, T/C [45]: 32.6%
viability, T/C [46]: 36.1%
viability, T/C [13]: 20.5%
viability, T/C [14]: 12.4%
viability, T/C [15]: 8.78%
viability, T/C [16]: 6.92%
viability, T/C [47]: 9.06%
viability, T/C [48]: 8.44%
viability, T/C [19]: 7.99%
viability, T/C [20]: 9.04%
viability, T/C [21]: 2.19%
viability, T/C [22]: 0.99%
viability, T/C [49]: 0.14%
viability, T/C [50]: 0.16%
viability, T/C [25]: 0.1%
viability, T/C [26]: 0.08%
viability, T/C [27]: 0.24%
viability, T/C [28]: 1.02%
viability, T/C [51]: 0.15%
viability, T/C [52]: 0.15%
viability, T/C [31]: 0.25%
viability, T/C [32]: 0.08%
viability, T/C [33]: 0.11%
viability, T/C [34]: 0.31%
viability, T/C [53]: 0.66%
viability, T/C [54]: 0.14%
viability, T/C [37]: 0.19%
viability, T/C [38]: 0.14%
viability, T/C [39]: 0.18%
viability, T/C [40]: 0.45%

Further lines, with some results ahead:

IC50 [1]: 118 nM
IC50 [2]: 201 nM
IC50 [3]: 51.8 nM
IC50 [4]: < 3.16 nM
IC50 [5]: < 3.16 nM
IC50 [6]: < 3.16 nM
Structure (SMILES): CCc1c2c(nc3ccc(O)cc13)-c1cc3c(c(=O)n1C2)COC(=O)[C@]3(O)CC + CNC(=O)c1ccc(Nc2nc(OC3CCCC3)c3c(-c4ccc5nc(C)oc5c4)c[nH]c3n2)c(OC)c1
viability, T/C [43]: 109%
viability, T/C [44]: 96.2%
viability, T/C [7]: 77.2%
viability, T/C [8]: 48.9%
viability, T/C [9]: 35.8%
viability, T/C [10]: 14.6%
viability, T/C [45]: 99.1%
viability, T/C [46]: 87.4%
viability, T/C [13]: 87.8%
viability, T/C [14]: 50.8%
viability, T/C [15]: 48.8%
viability, T/C [16]: 12.8%
viability, T/C [47]: 82.1%
viability, T/C [48]: 88.2%
viability, T/C [19]: 62.5%
viability, T/C [20]: 30.1%
viability, T/C [21]: 24.6%
viability, T/C [22]: 8.79%
viability, T/C [49]: 35.1%
viability, T/C [50]: 29.9%
viability, T/C [25]: 17.4%
viability, T/C [26]: 14.1%
viability, T/C [27]: 14.8%
viability, T/C [28]: 11.5%
viability, T/C [51]: 18.8%
viability, T/C [52]: 18.2%
viability, T/C [31]: 13%
viability, T/C [32]: 12.1%
viability, T/C [33]: 13.3%
viability, T/C [34]: 10.3%
viability, T/C [53]: 16.9%
viability, T/C [54]: 15.3%
viability, T/C [37]: 16.1%
viability, T/C [38]: 12.6%
viability, T/C [39]: 13.1%
viability, T/C [40]: 7.91%

IC50 (compound alone, run of 08/01/2023): 900 nM [middle of 12 runs]
Structure (SMILES): CNC(=O)c1ccc(Nc2nc(OC3CCCC3)c3c(-c4ccc5nc(C)oc5c4)c[nH]c3n2)c(OC)c1
viability, T/C (compound 0.0316 µM): 101% [middle of 12 runs]
viability, T/C (compound 0.1 µM): 99.3% [middle of 12 runs]
viability, T/C (compound 1 µM): 45.1% [middle of 12 runs]
viability, T/C (compound 3.16 µM): 33.5% [middle of 12 runs]
viability, T/C (compound 10 µM): 23.6% [middle of 12 runs]

IC50 (curve of compound): 763 nM and 4400 nM
Structure (SMILES): Nc1ccccc1NC(=O)c1ccc(CNC(=O)OCc2cccnc2)cc1
viability, T/C (compound 0.0316 µM): 62.3% and 96.6%
viability, T/C (compound 0.1 µM): 73.6% and 91.6%
viability, T/C (compound 0.316 µM): 60.1% and 85.8%
viability, T/C (compound 1 µM): 37.7% and 86.4%
viability, T/C (compound 3.16 µM): 38.6% and 60.3%
viability, T/C (compound 10 µM): 11.8% and 22.8%

IC50 (curve of compound): > 10000 nM
Structure (SMILES): O=C(c1cc(Cc2n[nH]c(=O)c3ccccc23)ccc1F)N1CCN(C(=O)C2CC2)CC1
viability, T/C (compound 0.0316 µM): 76.1% and 102%
viability, T/C (compound 0.1 µM): 97.4% and 102%
viability, T/C (compound 0.316 µM): 93.7% and 95.2%
viability, T/C (compound 1 µM): 62% and 95.9%
viability, T/C (compound 3.16 µM): 46.3% and 107%
viability, T/C (compound 10 µM): 70.3% and 93.2%
